Data reported in US6929912B2 (priority 1998, dated 2005).
Values joined by “and” are separate entries in the source; they are usually repeats but may differ in a detail not shown here. Equal values may be shown once. Read-outs that look alike come from different tables or passages of the source.

Key:
[1] = system: metastatic or inflammatory breast cancer; format: in vivo, human
breast cancer = details: cited from earlier work

Structure (SMILES)	chance of survival relative to patients homozygous for the A allele ([1]; CYP3A4 B allele patients)	Survival >3 years: Yes ([1]; CYP3A4 genotype AA (wildtype)) [%]	Survival >3 years: Yes ([1]; CYP3A4 genotype AB or BB) [%]	chance of survival relative to patients homozygous for the A allele ([1]; CYP3A5 B allele patients)	Survival >3 years: Yes ([1]; CYP3A5 genotype AA (wildtype)) [%]	Survival >3 years: Yes ([1]; CYP3A5 genotype AB or BB) [%]	blood concentrations of CY on day 3 (patients carrying the CYP3A4 promoter -392 variant vs without, p=0.0247)	blood concentrations of CY on day 2 (patients carrying the CYP3A4 promoter -392 variant vs without, p=0.0260)	Apparent induction of CY metabolism (Day 3 exposure/Day 1 exposure) (patients carrying the CYP3A4 variant SNP vs without, p=0.0260)	blood concentrations of CY on day 2 (patients carrying the CYP3A5 promoter -147 variant vs without, p=0.0281)	concentrations of CY (patients with CYP3A4 B allele vs homozygous for the A allele, day not given)	Blood concentrations of CY (patients with CYP3A5 B alleles vs homozygous for the A allele, day not given)	objective responses, patients (breast cancer; cyclophosphamide used alone)	objective responses, patients (breast cancer; cyclophosphamide used in combination regimens)	Survival >3 years: Yes ([1]; human, in vivo)
O=P1(N(CCCl)CCCl)NCCCO1 (stereo not drawn) [CY, cyclophosphamide]	⅓	46.6	15.4	less than ⅓	48.2	14.3	significantly higher	significantly higher	higher	significantly higher	higher	significantly higher	about 35%	up to 90%	
O=NN(CCCl)C(=O)NCCCl [BCNU, 1,3-bis-(chloroethyl)-1-nitrosourea]															55.6% and 29.7%
